Measured values taken from ChEMBL document CHEMBL1138886, “Dissociated nonsteroidal glucocorticoid receptor modulators; discovery of the agonist trigger in a tetrahydronaphthalene-benzoxazine series” (J Med Chem, 2006).
Active and inactive are the calls of the source. The rule behind the calls is not given here.

Experiments:
Glucocorticoid receptor [1] = target: T1, Glucocorticoid receptor (Homo sapiens, UniProt P04150)
T1 sequence (P04150 whole entry): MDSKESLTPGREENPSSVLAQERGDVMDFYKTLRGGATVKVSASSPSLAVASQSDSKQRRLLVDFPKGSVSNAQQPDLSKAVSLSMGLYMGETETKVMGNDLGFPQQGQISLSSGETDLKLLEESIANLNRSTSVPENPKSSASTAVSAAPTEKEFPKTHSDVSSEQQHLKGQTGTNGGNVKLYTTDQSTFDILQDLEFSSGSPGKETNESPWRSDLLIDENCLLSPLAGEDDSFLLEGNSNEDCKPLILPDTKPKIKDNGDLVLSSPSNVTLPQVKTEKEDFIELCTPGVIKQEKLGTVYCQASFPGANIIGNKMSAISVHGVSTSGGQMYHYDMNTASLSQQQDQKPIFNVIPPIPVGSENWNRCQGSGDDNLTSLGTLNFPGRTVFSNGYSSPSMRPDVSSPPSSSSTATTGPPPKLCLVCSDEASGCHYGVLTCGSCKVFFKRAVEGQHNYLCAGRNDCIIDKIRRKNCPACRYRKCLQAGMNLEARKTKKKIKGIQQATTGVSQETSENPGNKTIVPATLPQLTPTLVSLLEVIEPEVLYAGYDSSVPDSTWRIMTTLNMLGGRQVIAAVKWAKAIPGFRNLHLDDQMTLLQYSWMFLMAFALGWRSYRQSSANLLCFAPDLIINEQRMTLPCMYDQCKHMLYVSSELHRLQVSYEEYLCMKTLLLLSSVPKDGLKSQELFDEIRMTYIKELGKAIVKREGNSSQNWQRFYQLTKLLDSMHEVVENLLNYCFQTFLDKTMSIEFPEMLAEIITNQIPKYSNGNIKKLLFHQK

Glucocorticoid receptor [2] = target: T1, Glucocorticoid receptor; remark: listed apart in the source
Description: Agonist activity at GR assessed as NF-kappaB-mediated transrepression of secreted placental alkaline phosphatase gene in human A549 cells

Glucocorticoid receptor [3] = target: T1, Glucocorticoid receptor; remark: listed apart in the source
Glucocorticoid receptor [4] = target: T1, Glucocorticoid receptor; remark: listed apart in the source
[5] = target: T2, Glucocorticoid receptor (Homo sapiens) (UniProt P04150); test: Selectivity for MMTV transactivation assay over NF-kappaB transrepression assay for GR agonism in A549 cells; assay type: functional, cell-based
T2 sequence (whole entry): T1 sequence (P04150 whole entry)

Mus musculus = test: Anti-inflammatory activity against oxazolone-induced ear skin delayed types hypersensitivity model in topically dosed BALB/c mouse; assay type: functional
[6] = target: Estrogen receptor (Homo sapiens) (UniProt Q92731+P03372); test: Activity at ER; assay type: protein assay
Homo sapiens [7] = species: Homo sapiens; test: Selectivity for GR over AR by binding assay
Homo sapiens [8] = species: Homo sapiens; test: Selectivity for GR over AR by functional assay
Homo sapiens [9] = species: Homo sapiens; test: Selectivity for GR in NF-kappaB transrepression assay over MR antagonism; assay type: functional
Homo sapiens [10] = species: Homo sapiens; test: Selectivity for GR over PR by binding assay
Homo sapiens [11] = species: Homo sapiens; test: Selectivity for GR over PR by functional assay

| SMILES | IC50 (Glucocorticoid receptor [1]) [µM] | IC50 (Glucocorticoid receptor [2]) [µM] | IC50 (Glucocorticoid receptor [4]) [µM] | also measured |
| --- | --- | --- | --- | --- |
| Cc1noc(=O)c2ccc(NC(=O)C(O)(CC3CCCc4c(Br)cccc43)C(F)(F)F)cc12 (stereo in doubt; 23b) | 0.0398 |  |  |  |
| Cc1noc(=O)c2ccc(NC(=O)C(O)(CC3(c4ccccc4)CCCc4ccccc43)C(F)(F)F)cc12 (centres undefined) | 0.0145 | > 10 | 1.38 |  |
| Cc1noc(=O)c2ccc(NC(=O)C(O)(CC3CCCc4cccc(F)c43)C(F)(F)F)cc12 (centres undefined) | 0.0316 | > 1 |  |  |
| Cc1noc(=O)c2ccc(NC(=O)C(O)(CC3CCCc4c(N)cccc43)C(F)(F)F)cc12 (centres undefined) | 0.0251 | > 1 | 2 |  |
| Cc1noc(=O)c2ccc(NC(=O)C(O)(CC3CCCc4cc(F)ccc43)C(F)(F)F)cc12 (centres undefined) | 0.0126 | > 1 |  |  |
| Cc1noc(=O)c2ccc(NC(=O)C(O)(CC3CCCc4c(Cl)cccc43)C(F)(F)F)cc12 (stereo in doubt; 20a) | 0.0158 |  |  |  |
| Cc1cccc2c1CCCC2CC(O)(C(=O)Nc1ccc2c(=O)onc(C)c2c1)C(F)(F)F (stereo in doubt; 19a) | 0.02 |  | 0.794 |  |
| Cc1noc(=O)c2ccc(NC(=O)C(O)(CC3CCCc4c(Br)cccc43)C(F)(F)F)cc12 (stereo in doubt; 23e) | 0.0251 |  |  |  |
| Cc1noc(=O)c2ccc(NC(=O)C(O)(CC3CCCc4c3cccc4[N+](=O)[O-])C(F)(F)F)cc12 (centres undefined) | 0.0126 | > 1 |  |  |
| Cc1noc(=O)c2ccc(NC(=O)C(O)(CC3CCCc4c(Br)cccc43)C(F)(F)F)cc12 (stereo in doubt; 23f) | 0.631 | > 1 |  |  |
| Cc1noc(=O)c2ccc(NC(=O)C(O)(CC3CCCc4c(Br)cccc43)C(F)(F)F)cc12 (stereo in doubt; 23a) | 0.0158 |  | 0.794 |  |
| Cc1noc(=O)c2ccc(NC(=O)C(O)(CC3(C)CCCc4ccccc43)C(F)(F)F)cc12 (stereo in doubt; 35a) | 0.316 | > 10 |  |  |
| Cc1noc(=O)c2ccc(NC(=O)C(O)(CC3CCCc4ccc(F)cc43)C(F)(F)F)cc12 (centres undefined) | 0.0158 | > 1 |  |  |
| Cc1noc(=O)c2ccc(NC(=O)C(O)(CC3(C)CCCc4ccccc43)C(F)(F)F)cc12 (stereo in doubt; 35c) | 0.251 | > 10 |  |  |
| C[C@@H]1C[C@H]2[C@@H]3CCC4=CC(=O)C=C[C@]4(C)[C@@]3(F)[C@@H](O)C[C@]2(C)[C@@]1(O)C(=O)CO [DEXAMETHASONE] |  |  |  | ED50 (Mus musculus): 0.27 µg |
| CCC1(CC(O)(C(=O)Nc2ccc3c(=O)onc(C)c3c2)C(F)(F)F)CCOc2ccccc21 (stereo in doubt; 37) | 0.0166 |  |  |  |
| Cc1noc(=O)c2ccc(NC(=O)C(O)(CC3CCCc4c(F)cccc43)C(F)(F)F)cc12 (centres undefined) | 0.0158 | > 1 | 0.501 |  |
| Cc1noc(=O)c2ccc(NC(=O)C(O)(CC3CCCc4ccc([N+](=O)[O-])cc43)C(F)(F)F)cc12 (centres undefined) | 0.02 | > 1 |  |  |
| Cc1noc(=O)c2ccc(NC(=O)C(O)(CC3CCCc4cc([N+](=O)[O-])ccc43)C(F)(F)F)cc12 (centres undefined) | 0.126 | > 1 |  |  |
| Cc1noc(=O)c2ccc(NC(=O)C(O)(CC3CCCc4c(C#N)cccc43)C(F)(F)F)cc12 (centres undefined) | 0.0158 | > 1 |  |  |
| Cc1noc(=O)c2ccc(NC(=O)C(O)(CC3(CC(C)C)CCCc4ccccc43)C(F)(F)F)cc12 (centres undefined) |  |  |  | EC50 (Glucocorticoid receptor [3]): > 1 µM |

More lines, main results first:

| IC50 (Glucocorticoid receptor [1]) [µM] | IC50 (Glucocorticoid receptor [2]) [µM] | IC50 (Glucocorticoid receptor [4]) [µM] | SMILES | also measured |
| --- | --- | --- | --- | --- |
| 0.01 | 0.02 | 0.398 | Cc1noc(=O)c2ccc(NC(=O)C(O)(CC3(C)CCCc4ccccc43)C(F)(F)F)cc12 (stereo in doubt; 35d) | EC50 (Glucocorticoid receptor [3]): > 10 µM |
| 0.0126 | > 1 |  | COc1cccc2c1CCCC2CC(O)(C(=O)Nc1ccc2c(=O)onc(C)c2c1)C(F)(F)F (centres undefined) |  |
| 0.0115 | > 10 | 0.776 | Cc1noc(=O)c2ccc(NC(=O)C(O)(CC3(C(C)(C)C)CCCc4ccccc43)C(F)(F)F)cc12 (centres undefined) |  |
| 0.00479 | 0.00295 | 0.129 | Cc1noc(=O)c2ccc(NC(=O)C(O)(CC3(C(C)C)CCCc4ccccc43)C(F)(F)F)cc12 (centres undefined) | Efficacy [5]: 34%; EC50 (Glucocorticoid receptor [3]): 0.0186 µM |
| 0.00316 | > 1 | 0.2 | Cc1cccc2c1CCCC2CC(O)(C(=O)Nc1ccc2c(=O)onc(C)c2c1)C(F)(F)F (stereo in doubt; 19b) |  |
| 0.00617 | 0.00501 | 0.2 | CCC1(CC(O)(C(=O)Nc2ccc3c(=O)onc(C)c3c2)C(F)(F)F)CCCc2ccccc21 (centres undefined) | ED50 (Mus musculus): 5 µg; EC50 (Glucocorticoid receptor [3]): 0.00912 µM |
| 0.00501 | > 1 | 0.398 | Cc1noc(=O)c2ccc(NC(=O)C(O)(CC3CCCc4c(Cl)cccc43)C(F)(F)F)cc12 (stereo in doubt; 20b) |  |
| 0.00562 | 0.00468 | 0.0251 | CCCC1(CC(O)(C(=O)Nc2ccc3c(=O)onc(C)c3c2)C(F)(F)F)CCCc2ccccc21 (centres undefined) | Efficacy [5]: 67%; EC50 (Glucocorticoid receptor [3]): 0.02 µM |
| 0.00851 | 0.00331 | 0.2 | Cc1noc(=O)c2ccc(NC(=O)C(O)(CC3(C4CCCCC4)CCCc4ccccc43)C(F)(F)F)cc12 (centres undefined) | EC50 (Glucocorticoid receptor [3]): 0.0209 µM |
| 0.00309 | 0.00661 |  | CCCCC1(CC(O)(C(=O)Nc2ccc3c(=O)onc(C)c3c2)C(F)(F)F)CCCc2ccccc21 (centres undefined) | EC50 (Glucocorticoid receptor [3]): > 1 µM |
| 0.00631 |  |  | Cc1noc(=O)c2ccc(NC(=O)C(O)(CC3CCCc4c(Br)cccc43)C(F)(F)F)cc12 (stereo in doubt; 23c) |  |
| 0.00813 | 0.00204 | 0.0537 | Cc1noc(=O)c2ccc(NC(=O)[C@](O)(C[C@@]3(C4CCCC4)CCCc4ccccc43)C(F)(F)F)cc12 | ED50 (Mus musculus): 0.05 µg; Activity [6]: inactive; Selectivity ratio (Homo sapiens [7]): > 50; Selectivity ratio (Homo sapiens [8]): > 50; Selectivity ratio (Homo sapiens [9]): > 100; EC50 (Glucocorticoid receptor [3]): 0.0178 µM |
| 0.00794 | 1.26 |  | Cc1noc(=O)c2ccc(NC(=O)C(O)(CC3(C)CCCc4ccccc43)C(F)(F)F)cc12 (stereo in doubt; 35b) |  |
| 0.00501 | > 10 | 0.251 | CCC1(CC(O)(C(=O)Nc2ccc3c(=O)onc(C)c3c2)C(F)(F)F)CCCc2c([N+](=O)[O-])cccc21 (centres undefined) |  |
| 0.00794 | > 1 |  | Cc1noc(=O)c2ccc(NC(=O)C(O)(CC3CCCc4ccccc43)C(F)(F)F)cc12 (centres undefined) |  |
| 0.00631 | > 10 | 0.316 | CCC1(CC(O)(C(=O)Nc2ccc3c(=O)onc(C)c3c2)C(F)(F)F)CCCc2ccc([N+](=O)[O-])cc21 (centres undefined) |  |
| 0.00468 | 0.00955 | 0.204 | Cc1noc(=O)c2ccc(NC(=O)C(O)(CC3(C4CC4)CCCc4ccccc43)C(F)(F)F)cc12 (centres undefined) | EC50 (Glucocorticoid receptor [3]): 0.0398 µM |
| 0.0117 | > 10 |  | CCC1(CC(O)(C(=O)Nc2ccc3c(=O)onc(C)c3c2)C(F)(F)F)CCOc2ccccc21 (stereo in doubt; 38) |  |
| 0.00955 | 0.0049 | 0.166 | Cc1noc(=O)c2ccc(NC(=O)C(O)(CC3(C4CCC4)CCCc4ccccc43)C(F)(F)F)cc12 (centres undefined) | EC50 (Glucocorticoid receptor [3]): 0.0174 µM |
| 0.00794 | > 10 | 0.794 | CCC1(CC(O)(C(=O)Nc2ccc3c(=O)onc(C)c3c2)C(F)(F)F)CCCc2cc([N+](=O)[O-])ccc21 (centres undefined) |  |
| 0.01 | 0.00794 |  | CCC1(CC(O)(C(=O)Nc2ccc3c(=O)onc(C)c3c2)C(F)(F)F)CCCCc2ccccc21 (centres undefined) | EC50 (Glucocorticoid receptor [3]): > 10 µM |
| 0.00525 | 0.0012 | 0.0661 | CCC(CC)C1(CC(O)(C(=O)Nc2ccc3c(=O)onc(C)c3c2)C(F)(F)F)CCCc2ccccc21 (centres undefined) | ED50 (Mus musculus): 0.35 µg; Efficacy [5]: 50%; Activity [6]: inactive; Selectivity ratio (Homo sapiens [7]): > 50; Selectivity ratio (Homo sapiens [8]): > 50; Selectivity ratio (Homo sapiens [9]): > 100; Selectivity ratio (Homo sapiens [10]): 10; Selectivity ratio (Homo sapiens [11]): 10; EC50 (Glucocorticoid receptor [3]): 0.00631 µM |
